Where “and” joins values, the source holds several entries; their conditions need not be identical. Equal entries are not always repeated. The star is where a group is joined. Cbz = O=C(OCc1ccccc1)*

We go through one substance from patent US20100240591A1, “TPP II INHIBITORS FOR USE IN THE TREATMENT OF AUTOIMMUNE AND INFLAMMATORY DISEASES AND TRANSPLANT REJECTION” (ONCOREG AB, priority 2007, published 2010).

One test relates to EL-4 T-lymphoma cells. Nature of the test: Growth of EL-4 T-lymphoma cells in vivo in syngeneic C57BI/6 mice. Details: species or system mouse. The conditions noted are these: 13.8 mg/kg Z-GLA-OH added to 5 mg/kg Dexamethasone, twice weekly, C57BI/6 mice (FIG. 9). As to the method:
To test whether our TPPII inhibitors could improve the therapeutic effects of an anti-inflammatory drug in vivo, we examined growth of the T cell-derived lymphoma line EL-4 in vivo, in mice subjected to Cortisone-treatment. We used the derivate Dexamethasone at 5 mg/kg, a dose previously reported to cause thymocyte apoptosis, and a block of T cell responses in vivo (Brewer, J. A., Kanagawa, O., Sleckman, B. P., Muglia, L. J., Thymocyte apoptosis induced by T cell activation is mediated by glucocorticoids in vivo. J. Immunol. 2002, 169:1837-43.). The glucocorticoid receptor of T cells is crucial for curtailing lethal immune activation (Brewer J A, Khor B, Vogt S K, Muglia L M, Fujiwara H, Haegele K E, Sleckman B P, Muglia L J. T-cell glucocorticoid receptor is required to suppress COX-2-mediated lethal immune activation. Nat. Med. 2003 October; 9(10):1318-22.). Inhibited activation and proliferation of T cells in vivo by Dexamethasone-treatment is a standard method to treat patients with auto-immune, inflammatory as well as transplantation rejection diseases. It is however clear that disease symptoms, as well as immune activation and proliferation, are sometimes not controlled by Dexamethasone, or other Cortisone derivatives. […]
5×10^6 EL-4 T-lymphoma cells were inoculated subcutaneously into syngeneic C57BI/6 mice. […] The size of EL-4 lymphoma tumours were measured manually twice weekly. […]

Test [1] concerns the target T1, TPPII (Mus musculus, UniProt Q64514). The test is described as follows: Immuno-cytochemical staining of TPPII in live EL-4 cells treated with inhibitor. In kind it is cell-based. Details: endogenous in cells; host or cells: EL-4 mouse T-cell lymphoma. The settings on record: 2 hours, 10 micro-M.
Description: Immunocytochemistry. Cells were attached to glass cover slips through cytospin and fixed in acetone:methanol (1:1) for 1 hour; then the slides were rehydrated in BSS buffer for 1 hour. The first antibody was added and remained for 1 hour until a brief wash in BSS, after which a secondary conjugate (anti-rabbit-FITC) was added and incubated for 1 hour.
Then the slides were washed and stained with Hoescht 333258 for 30 min. Finally, the slides were mounted with DABCO mounting buffer and kept at 4° C. until analysis.
We performed immuno-cytochemical staining to test whether targeting of TPPII in live cells affected enzyme expression or distribution, by the use of a chicken anti-TPPII serum.
The next test deals with Subtilisin. The conditions noted are these: bacterial homologue of the eukaryotic TPP II; cited from earlier work.
The target in test [2] is T1, TPPII. Nature of the test: Inhibition of cleavage of AAF-AMC by enriched TPP II (fluorometric peptidase assay). In kind it is biochemical. Also on record: 1 ug of high molecular weight protein was used as enzyme in peptidase assays; endogenous in cells; EL-4 (mouse T lymphoma) by inference. The settings on record: for cleavage of AAF-AMC, single reading: arbitrary but relative units; for cleavage of AAF-AMC, mean: mean of three readings. As to the method:
Protein Purification, Peptidase Assays and Analysis of DNA Fragmentation. 100×10^6 cells were sedimented and lysed by vortexing in glass beads and homogenisation buffer (50 mM Tris Base pH 7.5, 250 mM Sucrose, 5 mM MgCl2, 1 mM DTT). Cellular lysates were submitted to differential centrifugation where a supernatant from a 1 hour centrifugation at 100,000×g (cytosol) was submitted to 100,000×g centrifugation for 3-5 hours, which sedimented high molecular weight cytosolic proteins/protein complexes. The resulting pellet dissolved in 50 mM Tris Base pH 7.5, 30% Glycerol, 5 mM MgCl2, and 1 mM DTT, and 1 micro-g of high molecular weight protein was used as enzyme in peptidase assays or in Western blotting for TPP II expression. To test the activity of TPP II we used the substrate AAF-AMC (Sigma, St. Louis, Mo.), at 100 micro-M concentration in 100 micro-I of test buffer composed of 50 mM Tri Base pH 7.5, 5 mM MgCl2 and 1 mM DTT. Cleavage activity was measured by emission at 460 nm in a LS50B Luminescence Spectrometer (Perkin Elmer, Boston, Mass.). For analysis of DNA fragmentation cells were seeded in 12-well plates at 10^6 cells/ml and exposed to 25 micro-M etoposide, a DNA topoisomerase II inhibitor commonly used as an apoptosis-inducing agent, to starvation (50% PBS). Cells were seeded at 10^6 cells/ml in 12-well plates and incubated for the indicated times, usually 18-24 hours. DNA from EL-4 control and adapted cells was purified by standard chloroform extraction, and 2.5 micro-g of DNA was loaded on 1.8% agarose gel for detection of DNA from apoptotic cells.
Table 1 contains in vitro data, in fluorometric units which are arbitrary but relative, for the inhibition of cleavage of AAF-AMC (H-Ala-Ala-7-amido-4-methylcoumarin) by compounds at several concentrations. Some beneficial effect is seen for most of the compounds tested.
TPP II protein was enriched, and then a TPP II-preferred fluorogenic substrate AAF-AMC was used. 100×10^6 cells were sedimented and lysed by vortexing in glass beads and homogenisation buffer (50 mM Tris Base pH 7.5, 250 mM Sucrose, 5 mM MgCl2, 1 mM DTT). Cellular lysates were subjected to differential centrifugation; first the cellular homogenate was centrifuged at 14,000 rpm for 15 min, and then the supernatant was transferred to ultra-centrifugation tubes. Next the sample was ultra-centrifugated at 100,000×g for 1 hour, and the supernatant (denoted as cytosol in most biochemical literature) was subjected to 100,000×g centrifugation for 5 hours, which sedimented high molecular weight cytosolic proteins/protein complexes. The resulting pellet dissolved in 50 mM Tris Base pH 7.5, 30% Glycerol, 5 mM MgCl2, and 1 mM DTT, and 1 ug of high molecular weight protein was used as enzyme in peptidase assays.
To test the activity of TPP II we used the substrate and AAF-AMC (Sigma, St. Louis, Mo.), at 100 uM concentration in 100 ul of test buffer composed of 50 mM Tri Base pH 7.5, 5 mM MgCl2 and 1 mM DTT. To stop reactions we used dilution with 900 ul 1% SDS solution. Cleavage activity was measured by emission at 460 nm in a LS50B Luminescence Spectrometer (Perkin Elmer, Boston, Mass.).

T1 sequence (Q64514 2-1262 limits assumed): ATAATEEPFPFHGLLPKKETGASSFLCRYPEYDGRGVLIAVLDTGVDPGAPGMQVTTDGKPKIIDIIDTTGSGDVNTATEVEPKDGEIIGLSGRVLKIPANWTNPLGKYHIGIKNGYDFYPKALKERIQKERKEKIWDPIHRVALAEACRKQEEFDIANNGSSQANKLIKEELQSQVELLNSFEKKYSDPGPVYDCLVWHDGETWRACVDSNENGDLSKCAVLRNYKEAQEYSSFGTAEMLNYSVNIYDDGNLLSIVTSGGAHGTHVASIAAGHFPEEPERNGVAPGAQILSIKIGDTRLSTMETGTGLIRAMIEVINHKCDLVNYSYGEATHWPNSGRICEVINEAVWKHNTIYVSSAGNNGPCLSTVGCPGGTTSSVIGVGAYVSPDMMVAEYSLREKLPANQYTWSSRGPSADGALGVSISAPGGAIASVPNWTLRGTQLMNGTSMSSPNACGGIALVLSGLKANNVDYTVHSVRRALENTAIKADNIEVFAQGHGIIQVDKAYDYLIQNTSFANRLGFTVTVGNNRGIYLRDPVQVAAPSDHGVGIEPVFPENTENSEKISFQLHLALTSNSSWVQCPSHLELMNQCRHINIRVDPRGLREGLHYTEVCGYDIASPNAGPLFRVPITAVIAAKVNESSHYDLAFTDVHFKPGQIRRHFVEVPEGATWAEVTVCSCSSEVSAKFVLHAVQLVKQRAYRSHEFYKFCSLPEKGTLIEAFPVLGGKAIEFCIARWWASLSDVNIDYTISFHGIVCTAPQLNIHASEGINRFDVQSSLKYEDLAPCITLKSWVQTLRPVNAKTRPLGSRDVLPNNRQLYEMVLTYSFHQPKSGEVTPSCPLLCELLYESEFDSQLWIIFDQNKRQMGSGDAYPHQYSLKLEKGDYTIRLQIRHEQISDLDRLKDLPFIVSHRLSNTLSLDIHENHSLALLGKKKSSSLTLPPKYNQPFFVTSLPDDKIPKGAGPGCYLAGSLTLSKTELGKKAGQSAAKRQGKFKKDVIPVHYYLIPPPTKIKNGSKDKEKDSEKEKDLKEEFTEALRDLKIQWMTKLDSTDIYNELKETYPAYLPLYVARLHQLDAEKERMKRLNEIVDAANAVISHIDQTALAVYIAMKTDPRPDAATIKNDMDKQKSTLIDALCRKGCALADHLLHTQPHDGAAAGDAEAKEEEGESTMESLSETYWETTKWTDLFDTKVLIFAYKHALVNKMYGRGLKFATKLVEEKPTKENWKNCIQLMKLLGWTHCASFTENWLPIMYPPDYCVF

As to Cbz-Gly-Leu-Ala-OH [Z-GLA-OH], the “anti-proliferative effect on EL-4 cells in vivo, in combination” value in the test with EL-4 T-lymphoma cells is on record as “increased the anti-proliferative effects of Dexamethasone in some of the mice”. In addition, the “detection of TPPII by immuno-cytochemical staining” value at TPPII [1] is “rapid decrease in the detection of TPPII, to almost undetectable levels”. In the test on Subtilisin, the “inhibition of Subtilisin” value was “found to inhibit”. Also, the “cleavage of AAF-AMC, single reading” value is 32.54 fluorometric units and 32.61 fluorometric units and 33.41 fluorometric units at TPPII [2] (compound 1 nM); 21.74 fluorometric units and 21.93 fluorometric units and 24.44 fluorometric units at TPPII [2] (compound 10 nM); 14.43 fluorometric units and 14.26 fluorometric units and 14.37 fluorometric units at TPPII [2] (compound 100 nM); 11.43 fluorometric units and 11.9 fluorometric units and 11.46 fluorometric units at TPPII [2] (compound 1 uM); 6.47 fluorometric units and 7.66 fluorometric units and 7.49 fluorometric units at TPPII [2] (compound 10 uM); 1.14 fluorometric units and 1.44 fluorometric units and 1.55 fluorometric units on TPPII [2] (compound 100 uM, 0 compound about 47-51). For the same substance, the “cleavage of AAF-AMC, mean” value on TPPII [2] (compound 1 nM) is recorded as 32.85 fluorometric units; at TPPII [2] (compound 10 nM) it was 22.70 fluorometric units; at TPPII [2] (compound 100 nM), 14.35 fluorometric units; on TPPII [2] (compound 1 uM) it was 11.60 fluorometric units; at TPPII [2] (compound 10 uM) it was 7.21 fluorometric units; at TPPII [2] (compound 100 uM) it was 1.38 fluorometric units.
